According to the supplement of paper PMC11208160:

Assay: recombinant UMI read abundance after kanamycin selection (control-corrected) (log10(CPM+1)); higher = more efficient recombination; extreme values may be limits of the assay; sequences stand for … in AGTGCAGAGAAAATCGGCCAGTTTTCTCTGCCTGCAGTCCGCATGCCGTGGGACCCCTTGGGTTCTAACCTGTTGCCTAGATTTATGCAGCGGACTGCCTTTCTCCCAAAGTGATAAACCGG…AGGTTGGTTTCACT; site = the 11-nt donor
How it was run: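 Sequenced counts of recombinant UMIs were turned into CPM, averaged across replicates and scaled with control-derived factors. The reported figure is log10(CPM+1). Those UMIs, each 12 nt long, tagged donor and donor-binding-loop pairs on a plasmid with a promoterless kanamycin gene, screened as a pool in Escherichia coli with IPTG (0.07 mM) plus kanamycin or without selection.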
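Also: IS621 bridge recombinase in Escherichia coli cells against a fixed T5 target plasmid.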

| Sequence | recombinant UMI read abundance (log10) |
| --- | --- |
| TAGCTCGCATGGACCGGTTTTCCCGGTAATCCGTATTTGAA (site TAGCTAGCTTT) | 0.0173 |
| TAGCTCGCATGGACCGGTTTTCCCGGTAATCCGTATTTGAA (site TAGCTCGCTTT) | 1.27 |
| TAGCTCGCATGGACCGGTTTTCCCGGTAATCCGTATTTGAA (site TAGCTGGCTTT) | 0.0219 |
| TAGCTCGCATGGACCGGTTTTCCCGGTAATCCGTATTTGAA (site TAGCTTGCTTT) | 0.0127 |
| TAGGAACCATGGACCGGTTTTCCCGGTAATCCGTATTTGCG (site TAGGAAACTCG) | 0.374 |
| TAGGAACCATGGACCGGTTTTCCCGGTAATCCGTATTTGCG (site TAGGAACCTCG) | 0.478 |
| TAGGAACCATGGACCGGTTTTCCCGGTAATCCGTATTTGCG (site TAGGAAGCTCG) | 0.00966 |
| TAGGAACCATGGACCGGTTTTCCCGGTAATCCGTATTTGCG (site TAGGAATCTCG) | 0.681 |
| TAGGAAGCATGGACCGGTTTTCCCGGTAATCCGTATTTGCG (site TAGGAAACTCG) | 2.32 |
| TAGGAAGCATGGACCGGTTTTCCCGGTAATCCGTATTTGCG (site TAGGAACCTCG) | 0.00974 |
| TAGGAAGCATGGACCGGTTTTCCCGGTAATCCGTATTTGCG (site TAGGAAGCTCG) | 2.73 |
| TAGGAAGCATGGACCGGTTTTCCCGGTAATCCGTATTTGCG (site TAGGAATCTCG) | 1.85 |
| TAGGAATCATGGACCGGTTTTCCCGGTAATCCGTATTTGCC (site TAGGAATCTAG) | 1.1 |
| TAGGAATCATGGACCGGTTTTCCCGGTAATCCGTATTTGCC (site TAGGAATCTCG) | 0.458 |
| TAGGAATCATGGACCGGTTTTCCCGGTAATCCGTATTTGCC (site TAGGAATCTGG) | 2.68 |
| TAGGAATCATGGACCGGTTTTCCCGGTAATCCGTATTTGCC (site TAGGAATCTTG) | 1.74 |
| TAGGACTCATGGACCGGTTTTCCCGGTAATCCGTATTTGCG (site TAGGAATCTCG) | 1.98 |
| TAGGACTCATGGACCGGTTTTCCCGGTAATCCGTATTTGCG (site TAGGACTCTCG) | 2.75 |
| TAGGACTCATGGACCGGTTTTCCCGGTAATCCGTATTTGCG (site TAGGAGTCTCG) | 1.05 |
| TAGGACTCATGGACCGGTTTTCCCGGTAATCCGTATTTGCG (site TAGGATTCTCG) | 1.05 |
| TAGGTACCATGGACCGGTTTTCCCGGTAATCCGTATTTGTT (site TAGGTACCTAA) | 0.0119 |
| TAGGTTTCATGGACCGGTTTTCCCGGTAATCCGTATTTGCG (site TAGGTTTCTCG) | 1.99 |
| TAGTAATCATGGACCGGTTTTCCCGGTAATCCGTATTTGCG (site TAGAAATCTCG) | 1.56 |
| TAGTAATCATGGACCGGTTTTCCCGGTAATCCGTATTTGCG (site TAGCAATCTCG) | 2.29 |
| TAGTAATCATGGACCGGTTTTCCCGGTAATCCGTATTTGCG (site TAGGAATCTCG) | 1.47 |

| Sequence | recombinant UMI read abundance (log10) |
| --- | --- |
| TAGTAATCATGGACCGGTTTTCCCGGTAATCCGTATTTGCG (site TAGTAATCTCG) | 2.65 |
| TAGTACTCATGGACCGGTTTTCCCGGTAATCCGTATTTGAT (site TAGTACTCTAT) | 2.53 |
| TAGTATACATGGACCGGTTTTCCCGGTAATCCGTATTTGTG (site TAGTATACTCA) | 0.807 |
| TAGTCAACATGGACCGGTTTTCCCGGTAATCCGTATTTGTT (site TAGTCAACTAA) | 0.0293 |
| TAGTCAGCATGGACCGGTTTTCCCGGTAATCCGTATTTGCT (site TAGTCAGCTAG) | 0.957 |
| TAGTCTGCATGGACCGGTTTTCCCGGTAATCCGTATTTGAG (site TAGTCTGCTCT) | 0.338 |
| TAGTGAGCATGGACCGGTTTTCCCGGTAATCCGTATTTGGG (site TAATGAGCTCC) | 0.00708 |
| TAGTGAGCATGGACCGGTTTTCCCGGTAATCCGTATTTGGG (site TACTGAGCTCC) | 0 |
| TAGTGAGCATGGACCGGTTTTCCCGGTAATCCGTATTTGGG (site TAGTGAGCTCC) | 0.0293 |
| TAGTGAGCATGGACCGGTTTTCCCGGTAATCCGTATTTGGG (site TATTGAGCTCC) | 0 |
| TAGTGGACATGGACCGGTTTTCCCGGTAATCCGTATTTGTT (site TAGTGGACTAA) | 1.38 |
| TAGTGTACATGGACCGGTTTTCCCGGTAATCCGTATTTGAT (site TAGTGTACTAT) | 0.856 |
| TATAAAGCATGGACCGGTTTTCCCGGTAATCCGTATTTGGA (site TATAAAGCTTC) | 0.646 |
| TATAATACATGGACCGGTTTTCCCGGTAATCCGTATTTGCA (site TAAAATACTTG) | 1.04 |
| TATAATACATGGACCGGTTTTCCCGGTAATCCGTATTTGCA (site TACAATACTTG) | 0.35 |
| TATAATACATGGACCGGTTTTCCCGGTAATCCGTATTTGCA (site TAGAATACTTG) | 2.6 |
| TATAATACATGGACCGGTTTTCCCGGTAATCCGTATTTGCA (site TATAATACTTG) | 0.242 |
| TATACTGCATGGACCGGTTTTCCCGGTAATCCGTATTTGCT (site TATACTGCTAG) | 1.63 |
| TATAGCGCATGGACCGGTTTTCCCGGTAATCCGTATTTGTC (site TATAGCGCTGA) | 2.62 |
| TATAGTCCATGGACCGGTTTTCCCGGTAATCCGTATTTGTA (site TAAAGTCCTTA) | 0.605 |
| TATAGTCCATGGACCGGTTTTCCCGGTAATCCGTATTTGTA (site TACAGTCCTTA) | 0.121 |
| TATAGTCCATGGACCGGTTTTCCCGGTAATCCGTATTTGTA (site TAGAGTCCTTA) | 0.0216 |
| TATAGTCCATGGACCGGTTTTCCCGGTAATCCGTATTTGTA (site TATAGTCCTTA) | 0.432 |
| TATCAAACATGGACCGGTTTTCCCGGTAATCCGTATTTGGC (site TATCAAACTGC) | 0 |
| TATCACACATGGACCGGTTTTCCCGGTAATCCGTATTTGTC (site TATCACACTGA) | 1.5 |

| Sequence | recombinant UMI read abundance (log10) |
| --- | --- |
| TATCAGCCATGGACCGGTTTTCCCGGTAATCCGTATTTGTT (site TATCAGCCTAA) | 0.0212 |
| TATCCATCATGGACCGGTTTTCCCGGTAATCCGTATTTGCG (site TATCCATCTCG) | 0.52 |
| TATCGAGCATGGACCGGTTTTCCCGGTAATCCGTATTTGTC (site TATCGAGCTGA) | 2.55 |
| TATCGTCCATGGACCGGTTTTCCCGGTAATCCGTATTTGCG (site TATCGTCCTCG) | 0.0127 |
| TATCTCACATGGACCGGTTTTCCCGGTAATCCGTATTTGTC (site TATCTCACTGA) | 1.44 |
| TATCTTCCATGGACCGGTTTTCCCGGTAATCCGTATTTGGT (site TATCTTCCTAC) | 0.00632 |
| TATGCGACATGGACCGGTTTTCCCGGTAATCCGTATTTGCT (site TATGCGACTAG) | 1.27 |
| TATGCTGCATGGACCGGTTTTCCCGGTAATCCGTATTTGGA (site TATGCTGCTTC) | 0.0199 |
| TATGGACCATGGACCGGTTTTCCCGGTAATCCGTATTTGCA (site TATGGACCTTG) | 0 |
| TATGGGTCATGGACCGGTTTTCCCGGTAATCCGTATTTGCT (site TATGGGTCTAG) | 2.88 |
| TATGTAACATGGACCGGTTTTCCCGGTAATCCGTATTTGCT (site AATGTAACTAG) | 0.864 |
| TATGTAACATGGACCGGTTTTCCCGGTAATCCGTATTTGCT (site CATGTAACTAG) | 1.18 |
| TATGTAACATGGACCGGTTTTCCCGGTAATCCGTATTTGCT (site GATGTAACTAG) | 1.67 |
| TATGTAACATGGACCGGTTTTCCCGGTAATCCGTATTTGCT (site TATGTAACTAG) | 2.06 |
| TATGTATCATGGACCGGTTTTCCCGGTAATCCGTATTTGCC (site TATGTATCTGG) | 2.66 |
| TATGTGGCATGGACCGGTTTTCCCGGTAATCCGTATTTGAA (site TATGTGGCTTT) | 0.784 |
| TATGTGGCATGGACCGGTTTTCCCGGTAATCCGTATTTGTG (site TATATGGCTCA) | 0.00536 |
| TATGTGGCATGGACCGGTTTTCCCGGTAATCCGTATTTGTG (site TATCTGGCTCA) | 0.0111 |
| TATGTGGCATGGACCGGTTTTCCCGGTAATCCGTATTTGTG (site TATGTGGCTCA) | 0.00847 |
| TATGTGGCATGGACCGGTTTTCCCGGTAATCCGTATTTGTG (site TATTTGGCTCA) | 0.0197 |
| TATTAACCATGGACCGGTTTTCCCGGTAATCCGTATTTGCC (site TATTAACCTGG) | 0 |
| TATTCAACATGGACCGGTTTTCCCGGTAATCCGTATTTGCC (site TATTCAACTGG) | 0.527 |
| TATTCGGCATGGACCGGTTTTCCCGGTAATCCGTATTTGGT (site TATTCGGCTAC) | 0 |
| TATTCTGCATGGACCGGTTTTCCCGGTAATCCGTATTTGGA (site TATTCTGCTTC) | 0.603 |
| TATTTAGCATGGACCGGTTTTCCCGGTAATCCGTATTTGTG (site TATTTAGCTCA) | 0.31 |
